Reference: patent US20260250290A1 (BRISTOL-MYERS SQUIBB COMPANY, priority 2023, published 2026)
pIC50: −log10 of the molar value. Counter-ions that a name gives are not always drawn.

target: T1, full length SGK1 (Homo sapiens, UniProt O00141); test: SGK1 inhibition Assay A (Caliper LabChip electrophoretic separation of fluorescent peptide substrate and phosphorylated product); type: biochemical; conditions: Assay A; 20 μM ATP, 40 min incubation; read-out: SGK1 IC50
T1 construct: 125 μM full length SGK1 (Life Technologies Part #PR7358A); purchased Life Technologies PR7358A
T1 sequence (O00141 1-431): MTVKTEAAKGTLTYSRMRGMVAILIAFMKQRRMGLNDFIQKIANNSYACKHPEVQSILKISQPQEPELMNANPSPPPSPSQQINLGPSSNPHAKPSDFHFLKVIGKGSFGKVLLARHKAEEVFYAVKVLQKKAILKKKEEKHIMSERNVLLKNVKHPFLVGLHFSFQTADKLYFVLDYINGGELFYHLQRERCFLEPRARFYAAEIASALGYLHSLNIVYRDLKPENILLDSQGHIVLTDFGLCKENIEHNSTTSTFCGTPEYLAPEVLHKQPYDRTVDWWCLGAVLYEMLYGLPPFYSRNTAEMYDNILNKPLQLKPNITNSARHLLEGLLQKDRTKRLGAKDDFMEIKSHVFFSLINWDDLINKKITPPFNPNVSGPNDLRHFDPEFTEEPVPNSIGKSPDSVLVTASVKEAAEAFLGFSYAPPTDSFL

pIC50 | Structure (SMILES)
7.92 | Nc1ncnn2c(C3=CCN(C(=O)C4(F)CC4)C3)cc(N3CCC[C@@H](NC(=O)c4sc(Cl)cc4OCCN4CCOCC4)C3)c12 [Example 263, (R)-N-(1-(4-amino-7-(1-(1-fluorocyclopropane-1-carbonyl)-2,5-dihydro-1H-pyrrol-3-yl)pyrrolo [2,1-f][1,2,4]triazin-5-yl)piperidin-3-yl)-5-chloro-3-(2-morpholinoethoxy)thiopbene-2-carboxamide]
6.83 | CC(=O)N1CC=C(c2cc(N3CCC[C@@H](NC(=O)c4ccon4)C3)c3c(N)ncnn23)C1 [Example 879, (R)—N-(1-(7-(1-acetyl-2,5-dihydro-1H-pyrrol-3-yl)-4-aminopyrrolo[2,1-f][1,2,4]triazin-5-yl)piperidin-3-yl)isoxazole-3-carboxamide]
7.82 | Nc1ncnn2c(-c3ccnc(F)c3)cc(N3CCC[C@@H](NC(=O)c4cc(Cl)sc4Cl)C3)c12 [Example 157, (R)-N-(1-(4-amino-7-(2-fluoropyridin-4-yl)pyrrolo[2,1-f][1,2,4]triazin-5-yl)piperidin-3-yl)-2,5-dichlorothiophene-3-carboxamide]
8.05 | CS(=O)(=O)c1ccc(-c2cc(N3CCC[C@@H](NC(=O)c4ccnc(Br)c4)C3)c3c(N)ncnn23)cc1 [Example 86, (R)-N-(1-(4-amino-7-(4-(methylsulfonyl)phenyl)pyrrolo[2,1-f][1,2,4]triazin-5-yl)piperidin-3-yl)-2-bromoisonicotinamide, TFA]
7.96 | CS(=O)(=O)c1ccc(-c2cc(N3CCC[C@@H](NC(=O)c4ccnc(F)c4)C3)c3c(N)ncnn23)cc1 [Example 32, (R)-N-(1-(4-amino-7-(4-(methylsulfonyl)phenyl)pyrrolo[2,1-f][1,2,4]triazin-5-yl)piperidin-3-yl)-2-fluoroisonicotinamide, TFA]
8.40 | Nc1ncnn2c(-c3ccnc(C(F)F)c3)cc(N3CCC[C@@H](NC(=O)c4cc5ccccc5s4)C3)c12 [Example 645, (R)-N-(1-(4-amino-7-(2-(difluoromethyl)pyridin-4-y1)pyrrolo[2,1-f][1,2,4]triazin-5-y1)piperidin-3-yl)benzo[b]thiophene-2-carboxamide]
7.39 | COC(=O)N1CC=C(c2cc(N3CCC[C@@H](NC(=O)c4cc5cc(C#N)ccc5[nH]4)C3)c3c(N)ncnn23)C1 [Example 498, Methyl (R)-3-(4-amino-5-(3-(5-cyano-1H-indole-2-carboxamido)piperidin-1-yl)pyrrolo[2,1-f][1,2,4]triazin-7-yl)-2,5-dihydro-1H-pyrrole-1-carboxylate]
7.96 | CN(C)CCOc1cc(C(F)F)sc1C(=O)N[C@@H]1CCCN(c2cc(-c3ccc(C(N)=O)nc3)n3ncnc(N)c23)C1 [Example 306, (R)-5-(4-amino-5-(3-(5-(difluoromethyl)-3-(2-(dimethylamino)ethoxy)thiophene-2-carboxamido)piperidin-1-yl)pyrrolo[2,1-f] [1,2,4]triazin-7-yl)picolinamide]
7.92 | C[C@@H]1CN(CCOc2cc(Cl)sc2C(=O)N[C@@H]2CCCN(c3cc(-c4ccnc(C(F)F)c4)n4ncnc(N)c34)C2)C[C@H](C)O1 [Example 296, N-((R)-1-(4-amino-7-(2-(difluoromethyl)pyridin-4-yl)pyrrolo[2,1-f][1,2,4]triazin-5-yl)piperidin-3-yl)-5-chloro-3-(2-((25,6R)-2,6-dimethylmorpholino)ethoxy)thiophone-2-carboxamide]
6.53 | CC(=O)N1CC=C(c2cc(N3CCC[C@@H](NC(=O)c4cc(-c5cncnc5)n[nH]4)C3)c3c(N)ncnn23)C1 [Example 501, (R)-N-(1-(7-(1-acetyl-2,5-dihydro-1H-pyrrol-3-yl)-4-aminopyrrolo[2,1-f][1,2,4]triazin-5-yl)piperidin-3-yl)-3-(pyrimidin-5-yl)-1H-pyrazole-5-carboxamide]
6.73 | CS(=O)(=O)c1ccc(-c2cc(N3CCC[C@@H](NC(=O)c4cn5ccncc5n4)C3)c3c(N)ncnn23)cc1 [Example 42, (R)-N-(1-(4-amino-7-(4-(methylsulfonyl)phenyl)pyrrolo 2,1-f][1,2,4]triazin-5-yl)piperidin-3-yl)imidazo[1,2-alpyrazine-2-carboxamide, TFA]
6.84 | CS(=O)(=O)c1ccc(-c2cc(N3CC[C@@H](NC(=O)c4ccc(Cl)s4)C3)c3c(N)ncnn23)cc1 [Example 137, (R)—N-(1-(4-amino-7-(4-(methylsulfonyl)phenyl)pyrrolo[2,1-f][1,2,4]triazin-5-yl)pyrrolidin-3-yl)-5-chlorothiophene-2-carboxamide, TFA]
7.89 | CN(C)CCOc1c(C(=O)N[C@@H]2CCCN(c3cc(-c4ccc(C(N)=O)nc4)n4ncnc(N)c34)C2)sc2ccccc12 [Example 664, (R)-5-(4-amino-5-(3-(3-(2-(dimethylamino)ethoxy)benzo[b]thiophene-2-carboxamido)piperidin-1-yl)pyrrolo[2,1-f][1,2,4]triazin-7-yl)picolinamide]
7.68 | Nc1ncnn2c(-c3ccco3)cc(N3CCC[C@@H](NC(=O)c4ccc(Cl)s4)C3)c12 [Example 230]
8.40 | Nc1ncnn2c(-c3ccnc(C(F)F)c3)cc(N3CCC[C@@H](NC(=O)c4sc(Cl)cc4OC4CCNC4)C3)c12 (stereo partly drawn) [Example 586, N-((R)-1-(4-amino-7-(2-(difluoromethyl)pyridin-4-yl)pyrrolo[2,1-f][1,2,4]triazin-5-yl)piperidin-3-yl)-5-chloro-3-(pyrrolidin-3-yloxy)thiophene-2-carboxamide]
7.80 | COc1cc(C(=O)N[C@@H]2CCCN(c3cc(C4=CCN(S(C)(=O)=O)C4)n4ncnc(N)c34)C2)ccn1 [Example 114, (R)—N-(1-(4-amino-7-(1-(methylsulfonyl)-2,5-dihydro-1H-pyrrol-3-yl)pyrrolo[2,1-f][1,2,4]triazin-5-yl)piperidin-3-yl)-2-methoxyisonicotinamide]
5.89 | CC(=O)N1CC=C(c2cc(N3CCC[C@@H](NC(=O)C4CCC(F)(F)C4)C3)c3c(N)ncnn23)C1 (stereo partly drawn) [Example 712, N-((R)-1-(7-(1-acetyl-2,5-dihydro-1H-pyrrol-3-yl)-4-aminopyrrolo[2,1-f][1,2,4]triazin-5-yl)piperidin-3-yl)-3,3-difluorocyclopentane-1-carboxamide]
7.21 | CC(=O)N1CC=C(c2cc(N3CCC[C@@H](NC(=O)c4cccc(N5CC(S(C)(=O)=O)C5)n4)C3)c3c(N)ncnn23)C1 [Example 764, (R)-N-(1-(7-(1-acetyl-2,5-dihydro-1H-pyrrol-3-yl)-4-aminopyrrolo[2,1-f][1,2,4]triazin-5-yl)piperidin-3-yl)-6-(3-(methylsulfonyl)azetidin-1-yl)picolinamide]
7.35 | COc1nc(C)c(C(=O)N[C@@H]2CCCN(c3cc(C4=CCN(C(C)=O)C4)n4ncnc(N)c34)C2)s1 [Example 474, (R)-N-(1-(7-(1-acetyl-2,5-dihydro-1H-pyrrol-3-yl)-4-aminopyrrolo[2,1-f][1,2,4]triazin-5-yl)piperidin-3-yl)-2-methoxy-4-methylthiazole-5-carboxamide]
7.85 | CC(=O)N1CC=C(c2cc(N3CCC[C@@H](NC(=O)c4sc(Cl)cc4OCCNCC(F)F)C3)c3c(N)ncnn23)C1 [Example 301, (R)-N-(1-(7-(1-acetyl-2,5-dihydro-1H-pyrrol-3-yl)-4-aminopyrrolo[2,1-f][1,2,4]triazin-5-yl)piperidin-3-yl)-5-chloro-3-(2-((2,2-difluoroethyl)amino)ethoxy)thiophene-2-carboxamide]
7.19 | CC(=O)N1CC=C(c2cc(N3CCC[C@@H](NC(=O)c4sc(C(F)F)cc4N4CC5(COC5)C4)C3)c3c(N)ncnn23)C1 [Example 315, (R)-N-(1-(7-(1-acetyl-2,5-dihydro-1H-pyrrol-3-yl)-4-aminopyrrolo[2,1-f][1,2,4]triazin-5-yl)piperidin-3-yl)-5-(difluoromethyl)-3-(2-oxa-6-azaspiro[3.3]heptan-6-yl)thiophene-2-carboxamide]
6.08 | CS(=O)(=O)c1ccc(-c2cc(N3CCC[C@@H](C(=O)NCc4ccccc4)C3)c3c(N)ncnn23)cc1 [Example 106, (R)-1-(4-amino-7-(4-(methylsulfonyl)phenyl)pyrrolo [2,1-f][1,2,4]triazin-5-yl)-N-benzylpiperidine-3-carboxamide]
6.55 | CS(=O)(=O)c1ccc(-c2cc(N3CC[C@@H]4C[C@]4(NC(=O)c4ccc(Cl)s4)C3)c3c(N)ncnn23)cc1 (relative stereo) [Example 165, rel-N-((1R,6R)-3-(4-amino-7-(4-(methylsulfonyl)phenyl)pyrrolo[2,1-f][1,2,4]triazin-5-yl)-3-azabicyclo[4.1.0]heptan-1-yl)-5-chlorothiophene-2-carboxamide, TFA]
8.10 | CC1CC(Oc2cc(Cl)sc2C(=O)NC2CCCN(c3cc(-c4cncnc4)n4ncnc(N)c34)C2)CCN1 (single isomer, unassigned) [Example 626]
7.06 | CN1CCN(c2cccc(C(=O)N[C@@H]3CCCN(c4cc(-c5ccnn5C)n5ncnc(N)c45)C3)n2)CC1 [Example 795, (R)-N-(1-(4-amino-7-(1-methyl-1H-pyrazol-5-yl)pyrrolo[2,1-f][1,2,4]triazin-5-yl)piperidin-3-yl)-6-(4-methylpiperazin-1-yl)picolinamide]
8.70 | CN(C)CCOc1cc(Cl)sc1C(=O)N[C@@H]1CCCN(c2cc(-c3ccc(C(F)F)nc3)n3ncnc(N)c23)C1 [Example 189, (R)-N-(1-(4-amino-7-(6-(difluoromethyl)pyridin-3-yl)pyrrolo[2,1-f][1,2,4]triazin-5-yl)piperidin-3-yl)-5-chloro-3-(2-(dimethylamino)ethoxy) thiophene-2-carboxamide]
